Like-named read-outs stand apart in the source and are kept apart here.
Tests used:
[1] = target: Brain AChE (acetylcholinesterase, rat striatum) (Rattus norvegicus, UniProt P37136); experiment: biochemical; design: species or system rat (male Wistar)
[2] = system: Scopolamine Induced Memory Deficit (mice); conditions: mouse, in vivo, sc

Sequence of Brain AChE (acetylcholinesterase, rat striatum) (P37136 32-614): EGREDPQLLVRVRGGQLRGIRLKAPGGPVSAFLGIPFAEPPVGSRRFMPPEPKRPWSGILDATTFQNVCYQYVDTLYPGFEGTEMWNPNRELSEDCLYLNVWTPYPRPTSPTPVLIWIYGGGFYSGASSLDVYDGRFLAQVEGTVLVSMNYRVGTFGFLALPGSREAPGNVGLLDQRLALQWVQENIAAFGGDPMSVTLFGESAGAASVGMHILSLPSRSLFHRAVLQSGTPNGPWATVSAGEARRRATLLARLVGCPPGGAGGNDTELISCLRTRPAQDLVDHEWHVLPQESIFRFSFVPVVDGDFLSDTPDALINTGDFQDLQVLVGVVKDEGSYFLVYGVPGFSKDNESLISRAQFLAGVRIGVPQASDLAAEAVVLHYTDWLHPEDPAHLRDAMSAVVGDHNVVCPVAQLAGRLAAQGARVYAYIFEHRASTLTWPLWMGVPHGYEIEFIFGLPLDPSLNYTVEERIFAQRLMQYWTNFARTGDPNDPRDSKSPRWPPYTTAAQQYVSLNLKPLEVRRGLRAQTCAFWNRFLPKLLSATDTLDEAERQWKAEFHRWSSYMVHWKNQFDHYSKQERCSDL

Compound	IC50 [1] [µM]	% of Animals with Scopolamine Induced Memory Deficit Reversal ([2]; 0.1 mg/kg) [%]	% of Animals with Scopolamine Induced Memory Deficit Reversal ([2]; 0.3 mg/kg) [%]
CCNC(=O)Oc1cnccc1N=CN(C)C [4-[[(Dimethylamino)methylene]amino]-3-pyridinol ethylcarbamate]	9.37	20.0	21.4
CNC(=O)Oc1cnccc1N=CN(C)C [4-[[(Dimethylamino)methylene]amino]-3-pyridinol methylcarbamate]	12.6		

From patent US5821239A (priority 1996, dated 1998)
